Source: US20110158980A1, “METHODS TO TREAT AND SCREEN FOR AGENTS TO TREAT OBESITY” (TRUSTEES OF TUFTS COLLEGE, priority 2008, published 2011)

Test system: 3T3-L1 adipocytes
Test: Metabolic flux analysis (stoichiometric model) of adipocyte intermediary metabolism
Format: cell-based
Experimental: 3T3-L1 preadipocytes were plated onto 24-well plates and expanded in preadipocyte growth medium consisting of DMEM supplemented with calf serum (10% v/v), penicillin and streptomycin. Medium was replenished every other day. Two days post-confluence, the cells were induced to differentiate using an adipogenic cocktail (1 μg/ml insulin, 0.5 mM isobutylmethylxanthine, and 1 μM dexamethasone) added to a basal medium (DMEM with 10% fetal bovine serum and penicillin/streptomycin). After 48 hrs, the first medium was replaced with a second induction medium consisting of the basal adipocyte medium supplemented with only insulin. […] This basal medium was replenished every other day during the remainder of the culture experiments.
A stoichiometric model of adipocyte central carbon metabolism was constructed as described previously (Si Y, Yoon J, Lee K. American journal of physiology 2007; 292:E1637-46). The model consisted of the major pathways of central carbon metabolism (Table 1). Intracellular fluxes were estimated by solving a constrained non-linear optimization problem with stoichiometric and thermodynamic constraints (Nolan R P, Fenley A P, Lee K. Metab Eng 2006; 8:30-45).

O=C(O)Cc1ccccc1 [phenylacetate]
Increase of lipolysis (5 mM PA): 1.2 fold | Decrease of citrate transport out of the mitochondria (5 mM phenylacetate): 40% | Decrease of pyruvate carboxylase flux (5 mM phenylacetate): 23% | Increase of lipolysis (10 mM PA): 1.4 fold | Calculated CO2 output lower (10 mM phenylacetate): 23% | Decrease of PDC flux (10 mM phenylacetate): 27% | Decrease of citrate transport out of the mitochondria (10 mM phenylacetate): 46% | Decrease of pyruvate carboxylase flux (10 mM phenylacetate): 33% | Flux RXN 1 Glycolysis: Glucose + ATP = Glucose 6-P + ADP (PA 5 mM, day 12 post-induction): 367.0 ± 17.6 mmol/g-DNA/2 days | Flux RXN 2 Glycolysis: Glucose 6-P = Fructose 6-P (PA 5 mM, day 12 post-induction): 359.9 ± 23.3 mmol/g-DNA/2 days | Flux RXN 3 Glycolysis: Fructose 6-P + ATP = Glyceraldehyde 3-P + Glycerone-P + ADP (PA 5 mM, day 12 post-induction): 364.7 ± 19.3 mmol/g-DNA/2 days | Flux RXN 4 Glycolysis: Glycerone-P = Glyceraldehyde 3-P (PA 5 mM, day 12 post-induction): 342.7 ± 18.4 mmol/g-DNA/2 days | Flux RXN 5 Glycolysis: Glyceraldehyde 3-P + NAD+ + ADP + Pi = P-Enolpyruvate + ATP + H2O (PA 5 mM, day 12 post-induction): 709.8 ± 35.8 mmol/g-DNA/2 days | Flux RXN 6 Glycolysis: P-Enolpyruvate + ADP + H+ = Pyruvate + ATP (PA 5 mM, day 12 post-induction): 784.6 ± 35.5 mmol/g-DNA/2 days | Flux RXN 7 Glycolysis: Pyruvate + NADH + H+ = Lactate + NAD+ (PA 5 mM, day 12 post-induction): 410.4 ± 19.1 mmol/g-DNA/2 days | Flux RXN 8 Pentose phosphate pathway: Glucose 6-P + 2 NADP+ + H2O = Ribulose 5-P + CO2 + 2 NADPH + 2 H+ (PA 5 mM, day 12 post-induction): 7.1 ± 7.8 mmol/g-DNA/2 days | Flux RXN 9 Pentose phosphate pathway: 3 Ribulose 5-P = 2 Fructose 6-P + Glyceraldehyde 3-P (PA 5 mM, day 12 post-induction): 2.4 ± 2.6 mmol/g-DNA/2 days | Flux RXN 10 TCA cycle (mitochondria) (PDC) (PA 5 mM, day 12 post-induction): 312.7 ± 48.2 mmol/g-DNA/2 days | Flux RXN 11 TCA cycle (mitochondria) (PC) (PA 5 mM, day 12 post-induction): 141.4 ± 13.2 mmol/g-DNA/2 days | Flux RXN 12 TCA cycle (mitochondria) (PA 5 mM, day 12 post-induction): 200.9 ± 54.1 mmol/g-DNA/2 days | Flux RXN 13 TCA cycle (mitochondria) (PA 5 mM, day 12 post-induction): 237.8 ± 52.0 mmol/g-DNA/2 days | Flux RXN 14 TCA cycle (mitochondria) (PA 5 mM, day 12 post-induction): 251.0 ± 52.6 mmol/g-DNA/2 days | Flux RXN 15 TCA cycle (mitochondria) (PA 5 mM, day 12 post-induction): 251.2 ± 52.7 mmol/g-DNA/2 days | Flux RXN 16 TCA cycle (mitochondria) (PA 5 mM, day 12 post-induction): 171.3 ± 45.2 mmol/g-DNA/2 days | Flux RXN 17 TCA cycle: Citrate + CoA + ATP = Acetyl-CoA + Oxaloacetate + ADP + Pi (PA 5 mM, day 12 post-induction): 74.9 ± 9.0 mmol/g-DNA/2 days | Flux RXN 18 TCA cycle: Oxaloacetate + NADH + H+ = Malate + NAD+ (PA 5 mM, day 12 post-induction): 0.0 ± 0.0 mmol/g-DNA/2 days | Flux RXN 19 TCA cycle: Malate + NADP+ = Pyruvate + CO2 + NADPH (PA 5 mM, day 12 post-induction): 79.9 ± 9.7 mmol/g-DNA/2 days | Flux RXN 20 TCA cycle: Citrate + NADP+ = 2-Oxoglutarate + CO2 + NADPH + H+ (PA 5 mM, day 12 post-induction): 36.9 ± 7.3 mmol/g-DNA/2 days | Flux RXN 21 TCA cycle: Oxaloacetate + ATP = P-Enolpyruvate + CO2 + ADP (PA 5 mM, day 12 post-induction): 74.8 ± 9.0 mmol/g-DNA/2 days | Flux RXN 22 Oxidative phosphorylation (NADH + 0.5 O2) (PA 5 mM, day 12 post-induction): 527.6 ± 214.3 mmol/g-DNA/2 days | Flux RXN 23 Oxidative phosphorylation (FADH2 + 0.5 O2) (PA 5 mM, day 12 post-induction): 272.8 ± 53.3 mmol/g-DNA/2 days | Flux RXN 24 Palmitate biosynthesis (PA 5 mM, day 12 post-induction): 9.4 ± 1.1 mmol/g-DNA/2 days | Flux RXN 25 Tripalmitoylglycerol biosynthesis: Glycerone-P + 3 Palmitate to Tripalmitoylglycerol (PA 5 mM, day 12 post-induction): 22.0 ± 1.3 mmol/g-DNA/2 days | Flux RXN 26 Tripalmitoylglycerol + 3 H2O = Glycerol + 3 Palmitate (PA 5 mM, day 12 post-induction): 19.2 ± 1.4 mmol/g-DNA/2 days | Flux RXN 27 Tripalmitoylglycerol accumulation (PA 5 mM, day 12 post-induction): 2.8 ± 0.4 mmol/g-DNA/2 days | Flux RXN 28 Metabolism of ketone bodies (PA 5 mM, day 12 post-induction): 8.4 ± 0.3 mmol/g-DNA/2 days | Flux RXN 29 Metabolism of ketone bodies (PA 5 mM, day 12 post-induction): 0.0 ± 0.0 mmol/g-DNA/2 days | Flux RXN 30 Metabolism of ketone bodies (to 3-Hydroxybutyrate) (PA 5 mM, day 12 post-induction): 17.0 ± 0.6 mmol/g-DNA/2 days | Flux RXN 31 Amino acid metabolism: Pyruvate + NH4+ + NADPH = Alanine (PA 5 mM, day 12 post-induction): 0.0 ± 0.0 mmol/g-DNA/2 days | Flux RXN 32 Amino acid metabolism: Aspartate + NH4+ = Asparagine (PA 5 mM, day 12 post-induction): 2.3 ± 0.1 mmol/g-DNA/2 days | Flux RXN 33 Amino acid metabolism: Aspartate = Oxaloacetate + NH4+ + NADH (PA 5 mM, day 12 post-induction): 0.0 ± 0.0 mmol/g-DNA/2 days | Flux RXN 34 Amino acid metabolism: Cysteine = Pyruvate + NH4+ + NADH (PA 5 mM, day 12 post-induction): 0.0 ± 0.0 mmol/g-DNA/2 days | Flux RXN 35 Amino acid metabolism: Glutamate = 2-Oxoglutarate + NH4+ + NADH (PA 5 mM, day 12 post-induction): 0.0 ± 0.0 mmol/g-DNA/2 days | Flux RXN 36 Amino acid metabolism: Glutamate + NH4+ + ATP = Glutamine (PA 5 mM, day 12 post-induction): 5.3 ± 0.4 mmol/g-DNA/2 days | Flux RXN 37 Amino acid metabolism: Serine + THF = Glycine (PA 5 mM, day 12 post-induction): 5.8 ± 0.2 mmol/g-DNA/2 days | Flux RXN 38 Amino acid metabolism: Histidine + THF = Glutamate + NH4+ (PA 5 mM, day 12 post-induction): 2.7 ± 0.2 mmol/g-DNA/2 days | Flux RXN 39 Amino acid metabolism: Isoleucine + 2 CoA (PA 5 mM, day 12 post-induction): 8.1 ± 0.3 mmol/g-DNA/2 days | Flux RXN 40 Amino acid metabolism: Leucine + CoA + CO2 + ATP (PA 5 mM, day 12 post-induction): 8.6 ± 0.3 mmol/g-DNA/2 days | Flux RXN 41 Amino acid metabolism: Lysine = 2-Oxoadipate + 2 NH4+ + 3 NADH (PA 5 mM, day 12 post-induction): 0.0 ± 0.0 mmol/g-DNA/2 days | Flux RXN 42 Amino acid metabolism: 2-Oxoadipate + CoA (PA 5 mM, day 12 post-induction): 0.0 ± 0.0 mmol/g-DNA/2 days | Flux RXN 43 Amino acid metabolism: Methionine + Serine + ATP + CoA + THF (PA 5 mM, day 12 post-induction): 0.0 ± 0.0 mmol/g-DNA/2 days | Flux RXN 44 Amino acid metabolism: Phenylalanine + O2 + NADH = Tyrosine (PA 5 mM, day 12 post-induction): 0.0 ± 0.0 mmol/g-DNA/2 days | Flux RXN 45 Amino acid metabolism: Glutamate + ATP + 2 NADPH = Proline (PA 5 mM, day 12 post-induction): 0.0 ± 0.0 mmol/g-DNA/2 days | Flux RXN 46 Amino acid metabolism: Serine = Pyruvate + NH4+ (PA 5 mM, day 12 post-induction): 0.0 ± 0.0 mmol/g-DNA/2 days | Flux RXN 47 Amino acid metabolism: Threonine + CoA to Glycine (PA 5 mM, day 12 post-induction): 0.1 ± 0.1 mmol/g-DNA/2 days | Flux RXN 48 Amino acid metabolism: Tryptophan + 3 O2 + NADPH = 2-Oxoadipate + Alanine + CO2 + NH4+ (PA 5 mM, day 12 post-induction): 0.0 ± 0.0 mmol/g-DNA/2 days | Flux RXN 49 Amino acid metabolism: Tyrosine + 2 O2 (PA 5 mM, day 12 post-induction): 0.2 ± 0.1 mmol/g-DNA/2 days | Flux RXN 50 Amino acid metabolism: Valine + CoA (PA 5 mM, day 12 post-induction): 5.1 ± 0.4 mmol/g-DNA/2 days | Flux RXN 51 Plasma exchange: Palmitate (PA 5 mM, day 12 post-induction): 1.0 ± 0.1 mmol/g-DNA/2 days | Flux RXN 52 Plasma exchange: Acetoacetate (PA 5 mM, day 12 post-induction): 0.2 ± 0.2 mmol/g-DNA/2 days | Flux RXN 53 Plasma exchange: Alanine (PA 5 mM, day 12 post-induction): 0.0 ± 0.0 mmol/g-DNA/2 days | Flux RXN 54 Plasma exchange: Aspartate (PA 5 mM, day 12 post-induction): 2.3 ± 0.1 mmol/g-DNA/2 days | Flux RXN 55 Plasma exchange: Cysteine (PA 5 mM, day 12 post-induction): 0.0 ± 0.0 mmol/g-DNA/2 days | Flux RXN 56 Plasma exchange: Glutamate (PA 5 mM, day 12 post-induction): 2.6 ± 0.2 mmol/g-DNA/2 days | Flux RXN 57 Plasma exchange: Glycine (PA 5 mM, day 12 post-induction): 5.9 ± 0.2 mmol/g-DNA/2 days | Flux RXN 58 Plasma exchange: Serine (PA 5 mM, day 12 post-induction): 5.8 ± 0.2 mmol/g-DNA/2 days | Flux RXN 59 Plasma exchange: Tyrosine (PA 5 mM, day 12 post-induction): 0.1 ± 0.1 mmol/g-DNA/2 days | Flux RXN 60 Plasma exchange: O2 (calculated oxygen uptake rate) (PA 5 mM, day 12 post-induction): 400.5 ± 134.0 mmol/g-DNA/2 days | Flux RXN 61 Plasma exchange: CO2 (PA 5 mM, day 12 post-induction): 805.5 ± 145.9 mmol/g-DNA/2 days | Flux RXN 62 Plasma exchange: NH4+ (PA 5 mM, day 12 post-induction): 17.0 ± 1.0 mmol/g-DNA/2 days | Flux RXN 63 Mitochondrial exchange: Pyruvate (PA 5 mM, day 12 post-induction): 454.0 ± 54.4 mmol/g-DNA/2 days | Flux RXN 64 Mitochondrial exchange: Malate in, Citrate out (PA 5 mM, day 12 post-induction): 111.7 ± 15.8 mmol/g-DNA/2 days
